Assay results reported in US20260325655A1, “DECREASING THE INTRINSICALLY DISORDERED PROTEIN ALPHA-SYNUCLEIN’S LEVELS BY TARGETING ITS STRUCTURED MRNA WITH A RIBONUCLEASE TARGETING CHIMERA” (University of Florida Research Foundation, Incorporated, priority 2023, published 2026).
Where two headings read alike, the source gives them in different places.

Tests used:
Format in all cases: cell-based, human
ferritin = ferritin protein in SH-SY5Y cells by Western blot
Experimental: (§1) Western blotting. After 48 h, cells were gently washed with ice-cold 1× DPBS, and total protein was extracted with Mammalian Protein Extraction Reagent (M-PER, Thermo Scientific) per the manufacturer's protocol. After quantifying protein concentration by using BCA Protein Assay Kit (Pierce Biotechnology), ~30 μg of total protein for each sample was separated using a 10% SDS-polyacrylamide gel and transferred onto a PVDF membrane. The membrane was fixed with 0.4% paraformaldehyde (pH=7.0) for 30 min at room temperature^9 and then blocked with 5% (w/v) non-fat dry milk in 1× TBST (1× TBS containing 0.1% Tween-20) for 1 h at room temperature. […] After washing 10 min each with 1× TBST three times, immunocomplex signals of each protein were detected by using a SuperSignal West Pico Chemiluminescent Substrate (Pierce Biotechnology) according to the manufacturer's protocol. The memebrane was then stripped by using 1× Stripping Buffer (200 mM glycine, pH 2.2, 4 mM SDS, 1% (v/v) Tween 20) at room temperature for 15 min, followed by blocking with 5% (w/v) non-fat dry milk at room temperature for 1 h. β-actin was used to normalize the levels of all proteins, measured by incubating with a primary antibody for β-actin (1:5000, 3700S from Cell Signaling Technology) at 4° C. overnight. […]

HHIPL1 = HHIPL1 protein in SH-SY5Y cells by Western blot; settings: 2 μM, 48 h
Experimental: as §1

TfR = TfR protein in SH-SY5Y cells by Western blot
Experimental: as §1

MYO15B = MYO15B protein in SH-SY5Y cells by Western blot; settings: 2 μM, 48 h
Experimental: as §1

SH-SY5Y cells = assay: transcriptome-wide RNA-seq in SH-SY5Y cells; settings: for inhibition at 2 µM: Homo sapiens, not statistically significant
Experimental: RNA-seq analysis. Total RNA was quantified using the Qubit 2.0 Fluorometer (Invitrogen) and an Agilent 2100 Bioanalyzer RNA nano chip. Samples with RIN>9.0 were proceeded to library preparation using NEBNext Ultra II Directional RNA Kit (Cat. #E7760, NEB) following manufacture's protocol. Briefly, 200 ng of total RNA was depleted of ribosomal RNA using the NEBNext rRNA Depletion Module. The product was chemically fragmented using NEBNext Magnesium RNA Fragmentation Module (E6150S, NEB) the at 94° C. for 15 min. First-strand synthesis was performed with random primers, and second strand was synthesized with dUTP in place of dTTP. After end repair and 3′ adenylation, the cDNA was ligated with adaptors and then treated with USER enzyme (Uracil-specific excision reagent). The product was PCR amplified with Illumina-barcoded primers to generate the cDNA libraries. The final libraries were analyzed on the bioanalyzer DNA chips, pooled in equimolar ratios, and loaded onto the NextSeq 500 v2.5 flow cell and sequenced with 2×40 bp paired-end chemistry. The raw data were aligned to the human genome using STAR.^11 Read counts were extracted using featureCounts,^12 and the differential gene analysis was performed using Deseq2.^13

APP = APP protein in SH-SY5Y cells by Western blot
Experimental: as §1

SNCA mRNA = assay: competition of Synucleozid-2.0 with Syn-RiboTAC in SH-SY5Y cells; settings: Synucleozid-2.0 0.1-10 μM; Syn-RiboTAC constant 2 μM
Experimental: Syn-RiboTAC's activity is RNase L-dependent. To validate mode of action, RNase L was knocked down in SH-SY5Y cells with a pool of siRNAs (FIG. 5C), followed by treatment with Syn-RiboTAC. […] Syn-RiboTAC and Synucleozid-2.0 were validated to engage the same binding site in cells by a competition experiment using a constant concentration of Syn-RiboTAC(2 μM) and varying concentrations of Synucleozid-2.0 (0.1-10 μM).
RNA extraction and reverse transcription-quantitative polymerase chain reaction (RT-qPCR). Total RNA was extracted from cells using a Quick-RNA MiniPrep Kit (Zymo Research) per the manufacturer's protocol including DNase treatment. For each sample, 200 ng of RNA was reverse transcribed into cDNA by using a qScript cDNA Synthesis Kit (QuantaBio) according to the manufacturer's instructions. To assess the relative mRNA levels, RT-qPCR was performed in triplicate using SYBR Green PCR mater mix (Applied Biosystems) with a Quant Studio 5 Real-Time PCR system. The relative levels of mRNA were calculated by using the ΔΔCt method as previously described.^8

[1] = of 447 detectable IRE-containing mRNAs

Question: Which “effect on ferritin protein level” value (ferritin) does the source give for CCOC(=O)C1=C(Nc2ccccc2)S/C(=C\c2ccc(OCCOCCOCCOCCNC(=O)CCCOc3ccc(-n4c(SCC(=O)Nc5ccc6cn[nH]c6c5)nnc4-c4ccncc4)cc3)c(O)c2)C1=O [Syn-RiboTAC] here?
Answer: no effect

Question: And the “reduction of HHIPL1 protein level” value (HHIPL1)?
Answer: ~ 20%

Question: And the “effect on TfR protein level” value (TfR)?
Answer: no effect

Question: And the “reduction of MYO15B protein level” value (MYO15B)?
Answer: ~ 20%

Question: What about the “number of genes downregulated” value (SH-SY5Y cells; 2 μM, of 30,175 genes detected) of the same compound?
Answer: 34

Question: What about the “number of genes upregulated” value (SH-SY5Y cells; 2 μM, of 30,175 genes detected) of the same compound?
Answer: 14

Question: And the “percent of genes affected” value (SH-SY5Y cells; 2 μM, of 30,175 genes detected)?
Answer: 0.16%

Question: What about the “number of genes affected” value (SH-SY5Y cells; 2 μM, of 30,175 genes detected, log 2fold change >0.58, p<0.05) of the same compound?
Answer: 48

Question: And the inhibition at 2 µM (SH-SY5Y cells; SH-SY5Y, RNA-seq, read-out: reduction of BLVRB transcript level)?
Answer: ~20%

Question: What about the inhibition at 2 µM (SH-SY5Y cells; SH-SY5Y, RNA-seq, read-out: reduction of SNCA transcript abundance by RNA-seq) of the same compound?
Answer: ~35%

Question: What about the “APP, ferritin, and TfR transcript levels in the RNA-seq data” value (SH-SY5Y cells; RNA-seq, SH-SY5Y) of the same compound?
Answer: unaffected

Question: What about the “number of bound transcripts whose levels were reduced (cleaved)” value (SH-SY5Y cells; of 38 Chem-CLIP-bound transcripts detected in RNA-seq, including SNCA) of the same compound?
Answer: four

Question: What about the “number of IRE-containing mRNAs affected” value (SH-SY5Y cells; [1]) of the same compound?
Answer: 19

Question: What about the “number of IRE-containing mRNAs downregulated” value (SH-SY5Y cells; [1]) of the same compound?
Answer: 11

Question: What about the “number of IRE-containing mRNAs upregulated” value (SH-SY5Y cells; [1]) of the same compound?
Answer: 8

Question: And the “effect on APP protein level” value (APP)?
Answer: no effect

Question: O=C(CSc1nnc(-c2ccncc2)n1-c1ccc(Br)cc1)Nc1ccc2cn[nH]c2c1 [Synucleozid-2.0] was tested. Which “SNCA mRNA levels in competition experiment” value (SNCA mRNA) did it give?
Answer: dose-dependent restoration of SNCA mRNA levels
